Common to all, as to experiment: ≥ marks a high value that may be exact or a test limit, other limits are often not marked, values filed in µg/mL are converted to µM
One assay concerns Escherichia coli JW0013.
Assay [1] has as its system Pseudomonas aeruginosa KCTC 1637.
Assay [2] has as its system Staphylococcus aureus KCTC 1621.
Assay [3] deals with Bacillus subtilis KCTC 3068.
Assay [4] deals with Staphylococcus epidermidis KCTC 1917.
Assay [5] relates to Salmonella typhimurium KCTC 1926.
For assay [6], the system named is Escherichia coli KCTC 1682.

≈ marks a conversion by molar mass, not a printed value.

The MIC is the least concentration at which growth counts as inhibited.

In the assay on Escherichia coli JW0013, `CC[C@H](C)[C@H](NC(=O)[C@H](CCCN=C(N)N)NC(=O)[C@H](CCCN=C(N)N)NC(=O)[C@@H]1CCCN1C(=O)[C@@H]1CCCN1C(=O)[C@H](CCCN=C(N)N)NC(=O)[C@@H]1CCCN1C(=O)[C@H](CCCN=C(N)N)NC(=O)[C@@H]1CCCN1C(=O)[C@H](CC(C)C)NC(=O)[C@H](Cc1ccc(O)cc1)NC(=O)[C@@H]1CCCN1C(=O)[C@@H]1CCCN1C(=O)[C@H](CCCCN)NC(=O)[C@H](CC(=O)O)NC(=O)[C@@H](N)CCCN=C(N)N)C(=O)N[C@@H](Cc1ccc(O)cc1)C(=O)N[C@@H](CC(N)=O)C(=O)N[C@@H](CCCN=C(N)N)C(N)=O` [RDKPPYLPRPRPPRRIYNR] yielded an MIC of 1.96 µM (≈ 4.8 µg/mL).

In the assay on Escherichia coli JW0013, `CC[C@H](C)[C@H](NC(=O)[C@H](CCCCN)NC(=O)[C@@H](N)CCCN=C(N)N)C(=O)N[C@@H](CCCN=C(N)N)C(=O)N1CCC[C@H]1C(=O)N[C@@H](CCCN=C(N)N)C(=O)N1CCC[C@H]1C(=O)N1CCC[C@H]1C(=O)N[C@@H](CCCN=C(N)N)C(=O)N[C@@H](CC(C)C)C(=O)N1CCC[C@H]1C(=O)N[C@@H](CCCN=C(N)N)C(=O)N1CCC[C@H]1C(=O)N[C@@H](CCCN=C(N)N)C(=O)N1CCC[C@H]1C(=O)N[C@@H](CCCN=C(N)N)C(=O)O` [RKIRPRPPRLPRPRPR] registered an MIC of 0.3 µM (≈ 0.615 µg/mL).

As to `CC[C@H](C)[C@H](NC(=O)[C@H](CCCN=C(N)N)NC(=O)[C@H](CCCN=C(N)N)NC(=O)[C@@H]1CCCN1C(=O)[C@@H]1CCCN1C(=O)[C@H](CCCN=C(N)N)NC(=O)[C@H](CCCCN)NC(=O)[C@H](CCCN=C(N)N)NC(=O)[C@@H]1CCCN1C(=O)[C@H](CC(C)C)NC(=O)[C@H](Cc1ccc(O)cc1)NC(=O)[C@H](Cc1cnc[nH]1)NC(=O)[C@H](CCCCN)NC(=O)[C@H](CCCCN)NC(=O)[C@H](CC(=O)O)NC(=O)[C@@H](N)C(C)C)C(=O)N[C@@H](Cc1ccc(O)cc1)C(=O)N[C@@H](CC(N)=O)C(=O)N[C@@H](CCCN=C(N)N)C(N)=O` [VDKKHYLPRKRPPRRIYNR], in the assay on Escherichia coli JW0013, the MIC stood at 0.682 µM (≈ 1.7 µg/mL).

In the case of `CC[C@H](C)[C@H](NC(=O)[C@H](CCCN=C(N)N)NC(=O)[C@H](CCCN=C(N)N)NC(=O)[C@@H]1CCCN1C(=O)[C@@H]1CCCN1C(=O)[C@H](CCCN=C(N)N)NC(=O)[C@H](CCCN=C(N)N)NC(=O)[C@H](CCCN=C(N)N)NC(=O)[C@@H]1CCCN1C(=O)[C@H](CC(C)C)NC(=O)[C@H](Cc1ccc(O)cc1)NC(=O)[C@H](Cc1cnc[nH]1)NC(=O)[C@H](CCCCN)NC(=O)[C@H](CCCCN)NC(=O)[C@H](CC(=O)O)NC(=O)[C@@H](N)C(C)C)C(=O)N[C@@H](Cc1ccc(O)cc1)C(=O)N[C@@H](CC(N)=O)C(=O)N[C@@H](CCCN=C(N)N)C(N)=O` [VDKKHYLPRRRPPRRIYNR], in the assay on Escherichia coli JW0013, the MIC came to 0.952 µM (≈ 2.4 µg/mL).

As for `CC[C@H](C)[C@H](NC(=O)[C@H](CCCN=C(N)N)NC(=O)[C@H](CCCN=C(N)N)NC(=O)[C@@H]1CCCN1C(=O)[C@@H]1CCCN1C(=O)[C@H](CCCN=C(N)N)NC(=O)[C@@H]1CCCN1C(=O)[C@H](CCCN=C(N)N)NC(=O)[C@@H]1CCCN1C(=O)[C@H](CCCN=C(N)N)NC(=O)[C@H](Cc1ccc(O)cc1)NC(=O)[C@H](Cc1cnc[nH]1)NC(=O)[C@H](CCCCN)NC(=O)[C@H](CCCCN)NC(=O)[C@H](CC(=O)O)NC(=O)[C@@H](N)C(C)C)C(=O)N[C@@H](Cc1ccc(O)cc1)C(=O)N[C@@H](CC(N)=O)C(=O)N[C@@H](CCCN=C(N)N)C(N)=O` [VDKKHYRPRPRPPRRIYNR], the MIC in the assay with Escherichia coli JW0013 was 0.639 µM (≈ 1.6 µg/mL).

As to `CC[C@H](C)[C@H](NC(=O)[C@H](CCCN=C(N)N)NC(=O)[C@H](CCCN=C(N)N)NC(=O)[C@@H]1CCCN1C(=O)[C@@H]1CCCN1C(=O)[C@H](CCCN=C(N)N)NC(=O)[C@H](CCCCN)NC(=O)[C@H](CCCN=C(N)N)NC(=O)[C@@H]1CCCN1C(=O)[C@H](CC(C)C)NC(=O)[C@H](Cc1ccc(O)cc1)NC(=O)[C@@H]1CCCN1C(=O)[C@H](CCCCN)NC(=O)[C@H](CCCCN)NC(=O)[C@H](CC(=O)O)NC(=O)[C@@H](N)C(C)C)C(=O)N[C@@H](Cc1ccc(O)cc1)C(=O)N[C@@H](CC(N)=O)C(=O)N[C@@H](CCCN=C(N)N)C(N)=O` [VDKKPYLPRKRPPRRIYNR], the minimum inhibitory concentration (MIC) with Escherichia coli JW0013 was 0.489 µM (≈ 1.2 µg/mL).

`CC[C@H](C)[C@H](NC(=O)[C@H](CCCN=C(N)N)NC(=O)[C@H](CCCN=C(N)N)NC(=O)[C@@H]1CCCN1C(=O)[C@@H]1CCCN1C(=O)[C@H](CCCN=C(N)N)NC(=O)[C@@H]1CCCN1C(=O)[C@H](CCCN=C(N)N)NC(=O)[C@@H]1CCCN1C(=O)[C@H](CC(C)C)NC(=O)[C@H](Cc1ccc(O)cc1)NC(=O)[C@H](CCCN=C(N)N)NC(=O)[C@@H]1CCCN1C(=O)[C@H](CCCCN)NC(=O)[C@H](CC(=O)O)NC(=O)[C@@H](N)C(C)C)C(=O)N[C@@H](Cc1ccc(O)cc1)C(=O)N[C@@H](CC(N)=O)C(=O)N[C@@H](CCCN=C(N)N)C(N)=O` [VDKPRYLPRPRPPRRIYNR] showed a minimal inhibitory concentration (MIC) in the assay on Escherichia coli JW0013 of 1.35 µM (≈ 3.3 µg/mL).

`CC[C@H](C)[C@H](NC(=O)[C@H](CCCN=C(N)N)NC(=O)[C@H](CCCN=C(N)N)NC(=O)[C@@H]1CCCN1C(=O)[C@@H]1CCCN1C(=O)[C@H](CCCN=C(N)N)NC(=O)[C@H](CCCCN)NC(=O)[C@H](CCCN=C(N)N)NC(=O)[C@@H]1CCCN1C(=O)[C@H](CC(C)C)NC(=O)[C@H](Cc1ccc(O)cc1)NC(=O)[C@H](Cc1cnc[nH]1)NC(=O)[C@H](CCCN=C(N)N)NC(=O)[C@H](CCCCN)NC(=O)[C@H](CC(=O)O)NC(=O)[C@@H](N)C(C)C)C(=O)N[C@@H](Cc1ccc(O)cc1)C(=O)N[C@@H](CC(N)=O)C(=O)N[C@@H](CCCN=C(N)N)C(N)=O` [VDKRHYLPRKRPPRRIYNR] displayed an MIC with Escherichia coli JW0013 of 0.635 µM (≈ 1.6 µg/mL).

In turn, `CC[C@H](C)[C@H](NC(=O)[C@H](CCCN=C(N)N)NC(=O)[C@H](CCCN=C(N)N)NC(=O)[C@@H]1CCCN1C(=O)[C@@H]1CCCN1C(=O)[C@H](CCCN=C(N)N)NC(=O)[C@H](CCCCN)NC(=O)[C@H](CCCN=C(N)N)NC(=O)[C@@H]1CCCN1C(=O)[C@H](CC(C)C)NC(=O)[C@H](Cc1ccc(O)cc1)NC(=O)[C@@H]1CCCN1C(=O)[C@H](CCCN=C(N)N)NC(=O)[C@H](CCCCN)NC(=O)[C@H](CC(=O)O)NC(=O)[C@@H](N)C(C)C)C(=O)N[C@@H](Cc1ccc(O)cc1)C(=O)N[C@@H](CC(N)=O)C(=O)N[C@@H](CCCN=C(N)N)C(N)=O` [VDKRPYLPRKRPPRRIYNR] showed an MIC against Escherichia coli JW0013 of 0.685 µM (≈ 1.7 µg/mL).

In the case of `CC[C@H](C)[C@H](NC(=O)[C@H](CCCN=C(N)N)NC(=O)[C@H](CCCN=C(N)N)NC(=O)[C@@H]1CCCN1C(=O)[C@@H]1CCCN1C(=O)[C@H](CCCN=C(N)N)NC(=O)[C@@H]1CCCN1C(=O)[C@H](CCCN=C(N)N)NC(=O)[C@@H]1CCCN1C(=O)[C@H](CC(C)C)NC(=O)[C@H](Cc1ccc(O)cc1)NC(=O)[C@@H]1CCCN1C(=O)[C@@H]1CCCN1C(=O)[C@H](CCCCN)NC(=O)[C@H](CCCCN)NC(=O)[C@@H](N)C(C)C)C(=O)N[C@@H](Cc1ccc(O)cc1)C(=O)N[C@@H](CC(N)=O)C(=O)N[C@@H](CCCN=C(N)N)C(N)=O` [VKKPPYLPRPRPPRRIYNR], in the assay on Escherichia coli JW0013, the MIC was 1.37 µM (≈ 3.3 µg/mL).

In the case of `CC[C@H](C)[C@H](NC(=O)[C@H](Cc1c[nH]c2ccccc12)NC(=O)[C@H](CCCN=C(N)N)NC(=O)[C@@H](NC(=O)[C@@H](NC(=O)[C@H](CCCN=C(N)N)NC(=O)[C@H](CCCCN)NC(=O)[C@@H](N)Cc1c[nH]c2ccccc12)[C@@H](C)CC)C(C)C)C(=O)N[C@@H](CCCCN)C(=O)N[C@@H](CCCN=C(N)N)C(=O)N[C@@H](Cc1c[nH]c2ccccc12)C(=O)N[C@@H](CC(C)C)C(=O)N[C@@H](CCCN=C(N)N)C(N)=O` [WKRIVRWIKRWLR], the MIC in assay [1] turned out to be 4 µM (≈ 7.58 µg/mL); in assay [2], 2 µM (≈ 3.79 µg/mL); in assay [3], 4 µM (≈ 7.58 µg/mL); in assay [4], 8 µM (≈ 15.2 µg/mL); in assay [5] it was 4 µM (≈ 7.58 µg/mL); in assay [6], 8 µM (≈ 15.2 µg/mL).
